Converted amounts (≈) assume the structure as drawn.
Details: buffer; pH 7.4; 200.0 µM
Work on `Nc1nc(NCC2CCCO2)nc(Nc2ccccc2F)c1[N+](=O)[O-]` (configuration not stated) yielded a solubility kinetic of 0.6 µg/mL (≈ 1.72 µM).
For `CCOC(=O)c1ccc(N2C(=O)C=C(N3CCOCC3)C2=O)cc1`, the solubility kinetic was > 49.6 µg/mL.
`O=Cc1cn(CCOc2ccccc2F)c2ccccc12` gave a solubility kinetic of 12.8 µg/mL (≈ 45.2 µM).
With `Cn1c(SCC(=O)N2CCCCCC2)nnc1-c1ccco1` the solubility kinetic was > 48.1 µg/mL.
With `Cc1ccc(NC(=O)CNS(=O)(=O)c2ccc(F)cc2)cc1C` the solubility kinetic was 6.7 µg/mL (≈ 19.9 µM).
For `O=C(CCC(=O)OCC(F)(F)C(F)F)Nc1ccccc1F`, the solubility kinetic was > 48.8 µg/mL.
In the case of `CC(c1ccccc1)n1c(Br)nc2c1c(=O)[nH]c(=O)n2C` (configuration not stated), the solubility kinetic is reported as 11.2 µg/mL (≈ 32.1 µM).
`CC(Cl)C(=O)N1c2ccccc2CCc2ccccc21` (configuration not stated) showed a solubility kinetic of 41.8 µg/mL (≈ 146 µM).
Molecule `Cc1cc(F)ccc1S(=O)(=O)NCC1CC2CCC1C2` (configuration not stated) has a solubility kinetic of 4.2 µg/mL (≈ 14.1 µM).
In the case of `CC(=O)Nc1cccc(C(=O)N2CCN(S(=O)(=O)Cc3ccccc3)CC2)c1`, the solubility kinetic is reported as > 60.2 µg/mL.
With `CC(=O)N(c1nc(CCl)cs1)c1ccc(C)cc1C` the solubility kinetic was > 44.2 µg/mL.
For `O=C(Cn1cnc2cc([N+](=O)[O-])ccc2c1=O)N1CCN(S(=O)(=O)c2ccccc2)CC1`, the solubility kinetic was 11 µg/mL (≈ 24 µM).
With `CC1CCN(C(=S)NC(=O)c2cccs2)CC1` the solubility kinetic was > 40.3 µg/mL.
For `CCOC(=O)CN1C(=O)S/C(=C/c2ccco2)C1=O`, the solubility kinetic was 21.2 µg/mL (≈ 75.4 µM).
`Cc1csc(NS(=O)(=O)c2ccc(Cl)cc2)n1` gave a solubility kinetic of 42.4 µg/mL (≈ 147 µM).
With `Cc1ccc(-c2c(NC(=O)C(C)C)n(C)c3ccccc3c2=O)cc1` the solubility kinetic was 29.4 µg/mL (≈ 87.9 µM).
With `N#CCCN(C(=O)COC(=O)CSc1ccc(Cl)cc1)c1ccccc1` the solubility kinetic was 56.9 µg/mL (≈ 146 µM).
Molecule `O=C(CC(=O)c1ccccc1)Nc1ccccc1` has a solubility kinetic of 29.5 µg/mL (≈ 123 µM).
In the case of `O=C(CSc1nc(C2CC2)nc2ccccc12)Nc1cccc(O)c1`, the solubility kinetic is reported as < 0.3 µg/mL.
In the case of `COc1cc(CNCc2ccc3c(c2)OCO3)c([N+](=O)[O-])cc1OC`, the solubility kinetic is reported as 46.6 µg/mL (≈ 135 µM).
Work on `O=C1C2C3C=CC(CC3)C2C(=O)N1c1ccccc1[N+](=O)[O-]` (configuration not stated) yielded a solubility kinetic of 14.5 µg/mL (≈ 48.6 µM).
In the case of `CC(=O)c1ccc(NC(=O)c2ccccc2-c2ccccc2C(=O)O)cc1`, the solubility kinetic is reported as > 53.9 µg/mL.
Molecule `COc1nc(/C=C/N(C)C)c([N+](=O)[O-])c(OC)n1` has a solubility kinetic of 17.2 µg/mL (≈ 67.7 µM).
For `CCOc1ccccc1NC(=O)Nc1ccncc1`, the solubility kinetic was 36.3 µg/mL (≈ 141 µM).
With `CC1CC(C)CN(C(=O)COC(=O)COc2ccc(C#N)cc2)C1` (configuration not stated) the solubility kinetic was 43.5 µg/mL (≈ 132 µM).
`CC(=O)Nc1ccc(C(F)(F)F)cc1Cl` showed a solubility kinetic of 23.1 µg/mL (≈ 97.2 µM).
With `Cc1cccc(OCC(O)CN2CCOCC2)c1.Cl` (configuration not stated) the solubility kinetic was > 43.2 µg/mL.
For `CCCCN(C(=S)SC)C1CCS(=O)(=O)C1` (configuration not stated), the solubility kinetic was 36.9 µg/mL (≈ 131 µM).
Work on `COc1ccc(-c2noc(CCC(=O)Nc3cccnc3)n2)cc1` yielded a solubility kinetic of 3.8 µg/mL (≈ 11.7 µM).
Work on `O=C(NCCc1c[nH]c2ccccc12)c1ccccc1Cl` yielded a solubility kinetic of 23.2 µg/mL (≈ 77.7 µM).
Work on `O=C(NC(=S)Nc1cccc(-c2ccc(CO)o2)c1)c1cccs1` yielded a solubility kinetic of 4.7 µg/mL (≈ 13.1 µM).
For `O=C(Nc1ccccc1N1CCOCC1)c1ccncc1`, the solubility kinetic was > 42.5 µg/mL.
Molecule `O=C(Nc1ccc(F)c(Cl)c1)C1CC(=O)n2c(nc3ccccc32)N1` (configuration not stated) has a solubility kinetic of 0.4 µg/mL (≈ 1.11 µM).
With `COc1ccc(N(C=O)C(=S)SC)cc1` the solubility kinetic was 2.7 µg/mL (≈ 11.2 µM).
For `CCCc1cc(=O)[nH]c(SCCc2ccccc2)n1`, the solubility kinetic was 17.4 µg/mL (≈ 63.4 µM).
For `O=C1c2ccccc2C(=O)N1C(CO)C(O)c1ccc([N+](=O)[O-])cc1` (configuration not stated), the solubility kinetic was > 51.3 µg/mL.
`COc1ccc2ccc(O)c(CN3CC=C(c4ccccc4)CC3)c2c1` showed a solubility kinetic of 1.6 µg/mL (≈ 4.63 µM).
For `O=C(Nc1ccc(Cl)cc1Cl)N1CCN(c2ncccn2)CC1`, the solubility kinetic was > 52.8 µg/mL.
Work on `O=C(c1cc2cc(Cl)ccc2[nH]1)N1CCCCC1` yielded a solubility kinetic of 2 µg/mL (≈ 7.61 µM).
In the case of `COc1cccc(C(=O)Nc2ccccc2OC(F)(F)F)c1`, the solubility kinetic is reported as 30.6 µg/mL (≈ 98.3 µM).
With `Cc1noc(C)c1COC(=O)c1ccc(N(C)C)cc1` the solubility kinetic was 1.6 µg/mL (≈ 5.83 µM).
For `O=C(CNC(=O)c1ccco1)NCc1nc2ccccc2[nH]1`, the solubility kinetic was > 44.7 µg/mL.
With `Cc1cccn2c(=O)c(C=O)c(Cl)nc12` the solubility kinetic was > 33.4 µg/mL.
`CC(=O)c1cn(-c2ccc(Cl)cc2)c(=O)[nH]c1=O` showed a solubility kinetic of 33.7 µg/mL (≈ 127 µM).
In the case of `COc1ccc(C(=O)N2CCN(Cc3nc(CC4CC4)no3)CC2)cc1`, the solubility kinetic is reported as > 53.5 µg/mL.
For `CC(C)(C)NC(=O)CSCc1ccc(Br)cc1`, the solubility kinetic was > 47.4 µg/mL.
Molecule `CC(=O)Oc1ccc2c(=O)oc(-c3ccccc3)nc2c1` has a solubility kinetic of 3.1 µg/mL (≈ 11 µM).
Molecule `Cc1ccsc1C1CC(=O)Nc2ccccc2S1` (configuration not stated) has a solubility kinetic of 35.6 µg/mL (≈ 129 µM).
In the case of `CCn1cc(C(=O)NCc2ccco2)c(=O)c2ccc(C)nc21`, the solubility kinetic is reported as 2.4 µg/mL (≈ 7.71 µM).
For `Cc1nc(N)nc(N/N=C/c2ccccc2)n1`, the solubility kinetic was > 34.2 µg/mL.
In the case of `O=C(NCCCNC(=O)c1ccccn1)c1cccc(F)c1`, the solubility kinetic is reported as 42.3 µg/mL (≈ 140 µM).
With `COC(=O)c1ccsc1NC(=O)c1cccc(OC)c1` the solubility kinetic was 1.4 µg/mL (≈ 4.81 µM).
`COc1cccc(C2N(c3ccccc3)CCN2c2ccccc2)c1OC` gave a solubility kinetic of 1 µg/mL (≈ 2.77 µM).
For `O=C(O)c1ccc(OCC(O)Cn2c3ccccc3c3ccccc32)cc1` (configuration not stated), the solubility kinetic was > 54.2 µg/mL.
`COc1ccc2oc(=O)c(C(=O)NC3CCCCCC3)cc2c1` gave a solubility kinetic of 2.6 µg/mL (≈ 8.24 µM).
`O=CNCCc1nc2ccccc2n1CCc1ccccc1` showed a solubility kinetic of 41 µg/mL (≈ 140 µM).
For `CCCc1ccc(-c2ccc(-c3noc(-c4ccncc4)n3)cc2)nc1`, the solubility kinetic was < 0.2 µg/mL.
For `Nc1nc(NCc2ccco2)nc(N2CCOCC2)c1[N+](=O)[O-]`, the solubility kinetic was > 48 µg/mL.
For `CC1(C)S[C@@H]2[C@H](NC(=O)C(C(=O)[O-])c3ccccc3)C(=O)N2[C@H]1C(=O)[O-].[Na+]` (some centres not stated), the solubility kinetic was > 63.4 µg/mL.
With `CCOC(=O)c1cnn(C)c1NC(=O)c1ccc(Cl)cc1Cl` the solubility kinetic was > 51.3 µg/mL.
For `Cc1cc(=O)[nH]c(SCC(=O)NCC2CCCCC2)c1C#N`, the solubility kinetic was > 47.9 µg/mL.
With `COc1cccc2[nH]c(C(=O)NCCc3ccccc3)cc12` the solubility kinetic was 1 µg/mL (≈ 3.4 µM).
In the case of `CCOc1cccc(/C=N/NC(=O)c2cccnc2)c1O`, the solubility kinetic is reported as > 42.8 µg/mL.
In the case of `Cc1[nH]c2ccccc2c(=O)c1C(=O)/C=C/c1ccccc1`, the solubility kinetic is reported as 35.8 µg/mL (≈ 124 µM).
For `O=C(NCc1ccc2c(c1)OCO2)C(=O)Nc1ccccc1`, the solubility kinetic was 0.5 µg/mL (≈ 1.68 µM).
With `CCN(CC)c1ccc(/C=N/O)cc1` the solubility kinetic was > 28.8 µg/mL.
With `Cc1ccccc1C1NC(=O)c2ccccc2O1` (configuration not stated) the solubility kinetic was 18.3 µg/mL (≈ 76.5 µM).
With `Cc1ccc(C(=O)Nc2ccc(Nc3ccccc3)cc2)cc1Br` the solubility kinetic was < 0.4 µg/mL.
With `C=C1c2cc3c(cc2NC(=S)N1Cc1ccccc1)OCO3` the solubility kinetic was 9.8 µg/mL (≈ 31.6 µM).
`O=C(NCc1ccccn1)Nc1ccc(Br)cc1` showed a solubility kinetic of 14.9 µg/mL (≈ 48.7 µM).
With `Cn1nccc1C(=O)OCC(=O)Nc1ccc(S(N)(=O)=O)cc1` the solubility kinetic was > 50.8 µg/mL.
In the case of `Cc1cc(C(=O)Nc2cccc(S(=O)(=O)N3CCOCC3)c2)c2ccccc2n1`, the solubility kinetic is reported as 13.1 µg/mL (≈ 31.8 µM).
In the case of `O=[N+]([O-])c1ccc(NCc2ccncc2)cc1`, the solubility kinetic is reported as > 34.4 µg/mL.
For `Cc1ccc2cc(NC(=O)Cc3ccccc3)ccc2n1`, the solubility kinetic was 32.6 µg/mL (≈ 118 µM).
With `COc1ccc(S(=O)(=O)N2CCN(C(=O)CC(C)C)CC2)cc1` the solubility kinetic was > 51.1 µg/mL.
Molecule `Cc1ccc(NC(=S)c2ccncc2)cc1` has a solubility kinetic of 33.5 µg/mL (≈ 147 µM).
In the case of `O=C(O)c1cccc(N2C(=O)CSC2=S)c1`, the solubility kinetic is reported as > 38 µg/mL.
`O=C(Nc1ccc(N2CCOCC2)c(F)c1)c1cccs1` gave a solubility kinetic of 17 µg/mL (≈ 55.5 µM).
With `Cc1cc(NC(=O)c2c(C)noc2C)no1` the solubility kinetic was > 33.2 µg/mL.
With `O=C(Nc1ccc(F)cc1)c1cc(Cl)sc1Cl` the solubility kinetic was 1.9 µg/mL (≈ 6.55 µM).
`Cc1c(C(=O)Nc2nccs2)oc2ccc(Br)cc12` gave a solubility kinetic of 2 µg/mL (≈ 5.93 µM).
For `CC1CCN(C(=O)CSCC(=O)O)CC1`, the solubility kinetic was > 34.7 µg/mL.
In the case of `Cc1nc([N+](=O)[O-])c(N2CCOCC2)n1Cc1ccccc1`, the solubility kinetic is reported as 44.7 µg/mL (≈ 148 µM).
With `CCCCCCCCC1CC(C(=O)Nc2ccccc2)C(=O)O1` (configuration not stated) the solubility kinetic was < 0.7 µg/mL.
In the case of `O=C1CC(c2ccccc2)CC(O)=C1C=NCc1ccncc1` (configuration not stated), the solubility kinetic is reported as > 46 µg/mL.
For `CCN(Cc1cccc(F)c1)C(=O)c1ccc2ccccc2n1`, the solubility kinetic was > 46.3 µg/mL.
In the case of `Cn1cccc1C(=O)NC1CCCCCC1`, the solubility kinetic is reported as > 33 µg/mL.
